This passage reports LogP and chromatographic logP results from patent US12509437B2, “Substituted thiophene carboxamides and derivatives thereof as microbicides” (Bayer Aktiengesellschaft, priority 2019, dated 2025).

This series in a line: LogP by HPLC on reversed phase columns (EEC directive 79/831 Annex V.A8). Type of series: physicochemical. The protocol:
[table] If more than one Log P value is available within the same method, all the values are given and separated by “+”. Calibration was done with straight-chain alkan2-ones (with 3 to 16 carbon atoms) with known Log P values (measurement of Log P values using retention times with linear interpolation between successive alkanones). Lambda-max-values were determined using UV-spectra from 200 nm to 400 nm and the peak values of the chromatographic signals.

Where [1] appears, read: method [a]: LC-UV, acidic range, 0.1% formic acid in water and acetonitrile as eluent.

Turning to `COC(=O)[C@H](CCC(=O)O)NC(=O)c1sc(Br)c(Br)c1C` [I.104], the LogP (method [a]) is 2.46^[a].

Take `CCCCOC(=O)C1(NC(=O)c2sc(Cl)c(Cl)c2C)CCC1` [I.157]: the LogP (method [a]) was 4.59^[a].

For the compound `Cc1c(C(=O)NC(C)(C#N)C2CC2)sc(Br)c1Br` (centres unmarked) [I.152], where the note is “method [a]”, the LogP is 3.50^[a].

As to `Cc1c(C(=O)NC(C(N)=O)C(C)C)sc(Br)c1Br` (centres unmarked) [I.051], for the setting “method [a]”, the LogP is 2.58^[a].

Take `COC(=O)C(NC(=O)c1sc(Cl)c(Cl)c1C)(C1CC1)C1CC1` [I.086]: for the setting “method [a]”, the LogP is 3.94^[a].

Turning to `CCOC(=O)C1(C2(NC(=O)c3sc(Br)c(Br)c3C)CC2)CC1` [I.017], for the setting “method [a]”, the LogP is 4.37^[a].

With `Cc1c(C(=O)NC2(C#N)CCSCC2)sc(Br)c1Br` [I.169], the LogP (method [a]) was 3.59^[a].

On to `CCOC(=O)C(CSC(C)=O)NC(=O)c1sc(Cl)c(Cl)c1C` (centres unmarked) [I.126], for which the LogP (method [a]) is 3.51^[a].

On to `Cc1c(C(=O)NC(C(=O)OC(C)(C)C)C2CC2)sc(Cl)c1Cl` (centres unmarked) [I.161], for which, for the setting “method [a]”, the LogP is 4.70^[a].

Take `Cc1c(C(=O)NC2(C3(C(=O)OC(C)C)CC3)CC2)sc(Br)c1Br` [I.020]: the LogP (method [a]) was 4.87^[a].

Take `CCOC(=O)C(NC(=O)c1sc(Br)c(Br)c1C)C(=O)OCC` [I.094]: the LogP (method [a]) was 3.87^[a].

`CCOC(=O)CCC(NC(=O)c1sc(Cl)c(Cl)c1C)C(=O)OCC` (centres unmarked) [I.124]: where the note is “method [a]”, the LogP is 3.84^[a].

Turning to `COC(=O)C1(NC(=O)c2sc(Cl)c(Cl)c2C)CC(C)(C)C1` [I.142], the LogP (method [a]) is 4.05^[a].

Regarding `Cc1c(C(=O)NC2(C#N)CCC(C3CCCCC3)CC2)sc(Br)c1Br` (centres unmarked) [I.151], the LogP under setting [1] is 6.06^[a].

As to `Cc1c(C(=O)NC(CCC(N)=O)C(=O)O)sc(Cl)c1Cl` (centres unmarked) [I.069], the LogP (method [a]) is 1.70^[a].

`CCOC(=O)C1(NC(=O)c2sc(Br)c(Br)c2C)CN(C(=O)OC(C)(C)C)C1` [I.090]: for the setting “method [a]”, the LogP is 4.23^[a].

For `CCOC(=O)CCNC(=O)c1sc(Cl)c(Cl)c1C` [I.038], the LogP (method [a]) was 3.06^[a].

With `CCOC(=O)CN(O)C(=O)c1sc(Cl)c(Cl)c1C` [I.116], the LogP (method [a]) is 2.95^[a].

Take `CNC(=O)C1(NC(=O)c2sc(Br)c(Br)c2C)CC1` [I.130]: under “method [a]”, the LogP is 2.21^[a].

For the compound `Cc1c(C(=O)NC2(C(=O)O)CC2)sc(Cl)c1Cl` [1-{[(4,5-dichloro-3-methyl-2-thienyl)carbonyl]amino}cyclopropanecarboxylic acid], under “reversed phase HPLC columns, preparation examples, method not indicated, read-out: Log P”, the chromatographic logP came out at 2.17.

As for `Cc1c(C(=O)NC2(C(N)=S)CC2)sc(Cl)c1Cl` [I.159], the LogP (method [a]) was 2.54^[a].

On to `COC(=O)[C@H](CCC(=O)O)NC(=O)c1sc(Cl)c(Cl)c1C` [I.103], for which the LogP (method [a]) was 2.39^[a].

On to `Cc1c(C(=S)NC(C)C(=O)O)sc(Br)c1Br` (centres unmarked) [I.173], for which the LogP (method [a]) is 3.05^[a].

With `Cc1c(C(=O)NC(C(=O)OC2CCC2)C2CC2)sc(Cl)c1Cl` (centres unmarked) [I.153], under “method [a]”, the LogP was 4.44^[a].

Turning to `Cc1c(C(=O)NC2CCCCNC2=O)sc(Cl)c1Cl` (centres unmarked) [I.163], under setting [1], the LogP is 2.67^[a].

With `CCOC(=O)C(CC1CC1)NC(=O)c1sc(Cl)c(Cl)c1C` (centres unmarked) [I.085], under “method [a]”, the LogP is 4.23^[a].

`Cc1c(C(=O)NC(CO)C(=O)O)sc(Cl)c1Cl` (centres unmarked) [I.067]: where the note is “method [a]”, the LogP was 1.84^[a].

`CNC(=O)CNC(=O)c1sc(Cl)c(Cl)c1C` [I.110]: the LogP (method [a]) was 1.92^[a].

Turning to `COC(=O)[C@H](Cc1ccccc1)NC(=O)[C@H](CC(=O)O)NC(=O)c1sc(Br)c(Br)c1C` [I.105], the LogP under setting [1] is 3.11^[a].

With `COC(=O)C1(NC(=O)c2sc(Cl)c(Cl)c2C)COC1` [I.144], the LogP (method [a]) is 2.52^[a].

In the case of `COC(=O)[C@@H](CC(N)=O)NC(=O)c1sc(Br)c(Br)c1C` [I.052], the LogP (method [a]) was 2.12^[a].

As for `CCOC(=O)C(C(C)C)N(C)C(=O)c1sc(Br)c(Br)c1C` (centres unmarked) [I.058], the LogP (method [a]) is 4.51^[a].
